melting point	Compound
103 to 105 °C	C[C@H](N)C(=O)NC[C@H]1CN(c2ccc(N3CCC(=CC#N)CC3)c(F)c2)C(=O)O1 [Example 41, (2S, 5S)-{N-{3-[4-(4-cyanomethylidene-piperidin-1-yl)-3-fluorophenyl]-2-oxo-oxazolidin-5-ylmethyl}-propionamid-2-yl}-amine]
88 to 90 °C	N#CC=C1CCN(c2ccc(N3C[C@H](CNC(=O)C(N)CO)OC3=O)cc2F)CC1 (stereo partly drawn) [Example 42, (2S, 5S)-{N-{3-[4-(4-cyanomethylidene-piperidin-1-yl)-3-fluorophenyl]-2-oxo-oxazolidin-5-ylmethyl}-3-hydroxypropionamid-2-yl}-amine]
93 to 96 °C	N#CC=C1CCN(c2ccc(N3C[C@H](CNC(=O)[C@@H](N)Cc4c[nH]cn4)OC3=O)cc2F)CC1 [Example 43, (2S, 5S){N-{3-[4-(4-cyanomethylidene-piperidin-1-yl)-3-fluorophenyl]-2-oxo-oxazolidin-5-ylmethyl}-3-(imidazol-4-yl)-propionamid-2-yl}-amine]
126 to 128 °C	CS(=O)(=O)OC[C@H]1CN(c2ccc(N3CCC(=CC#N)CC3)c(F)c2)C(=O)O1 [Example 54, (R)-{3-[4-(4-cyanomethylidene-piperidin-1-yl)-3-fluorophenyl]-2-oxo-oxazolidin-5-ylmethyl}-methanesulphonate]
102 to 104 °C	CC1CN(c2ccc(N3C[C@H](CNC(=O)CC#N)OC3=O)cc2F)CC/C1=C\C#N (stereo partly drawn) [Example 65, (S)-N-{3-[4-(4-cyanomethylidene-3-methylpiperidin-1-yl)-3-fluorophenyl]-2-oxo-oxazolidin-5-ylmethyl}-2-cyanoacetamide]
194 to 196 °C	CC(C#N)=C1CCN(c2ccc(N3C[C@H](CNC(=O)CC#N)OC3=O)cc2F)CC1 [Example 75, (S)-N-{3-[4-(4-(1-cyanoethylidene)-piperidin-1-yl)-3-fluorophenyl]-2-oxo-oxazolidin-5-ylmethyl}-2-cyanoacetamide]
166 to 168 °C	CC(C#N)=C1CCN(c2ccc(N3C[C@H](CNC(=O)C(Cl)(Cl)Cl)OC3=O)cc2F)CC1 [Example 80, (S)-N-{3-[4-(4-(1-cyanoethylidene)-piperidin-1-yl)-3-fluorophenyl]-2-oxo-oxazolidin-5-ylmethyl}-trichloroacetamide]

More lines, now with the values behind:

Compound	melting point
N#CC=C1CCN(c2ccc(N3C[C@H](CNC(=O)CI)OC3=O)cc2F)CC1 [Example 36, (S)-N-{3-[4-(4-cyanomethylidene-piperidin-1-yl)-3-fluorophenyl]-2-oxo-oxazolidin-5-ylmethyl}-iodoacetamide]	178 to 180 °C
N#CC=C1CCN(c2ccc(N3C[C@H](CN4C(=O)c5ccccc5C4=O)OC3=O)cc2F)CC1 [Example 44, (S)-N-{3-[4-(4-cyanomethylidene-piperidin-1-yl)-3-fluorophenyl]-2-oxo-oxazolidin-5-ylmethyl}-1-pthalamide]	183 to 185 °C
N#CC=C1CCN(c2ccc(N3C[C@H](CNC(=S)NCCO)OC3=O)cc2F)CC1 [Example 48, (S)-N-{3-[4-(4-cyanomethylidene-piperidin-1-yl)-3-fluorophenyl]-2-oxo-oxazolidin-5-ylmethyl}-2-hydroxyethylthiocarbamide]	168 to 170 °C
N#CC=C1CCN(c2ccc(N3C[C@H](CNC(=S)CN)OC3=O)cc2F)CC1 [Example 49, (S)-N-{3-[4-(4-cyanomethylidene-piperidin-1-yl)-3-fluorophenyl]-2-oxo-oxazolidin-5-ylmethylamino}-thiocarbonylmethylamine]	157 to 158 °C
CNC(=S)NC[C@H]1CN(c2ccc(N3CCC(=CC#N)CC3)c(F)c2)C(=O)O1 [Example 52, (S)-N-{3-[4-(4-cyanomethylidene-piperidin-1-yl)-3-fluorophenyl]-2-oxo-oxazolidin-5-ylmethyl}-methylthiocarbamide]	191 to 192 °C
CC(C)COC(=O)NC[C@H]1CN(c2ccc(N3CC/C(=C\C#N)C(F)C3)c(F)c2)C(=O)O1 (stereo partly drawn) [Example 58, (S)-N-{3-[4-(4-cyanomethylidene-3-fluoropiperidin-1-yl)-3-fluorophenyl]-2-oxo-oxazolidin-5-ylmethyl}-isobutylcarbamate]	162 to 164 °C
CS(=O)(=O)OC[C@H]1CN(c2ccc(N3CC/C(=C\C#N)C(F)C3)c(F)c2)C(=O)O1 (stereo partly drawn) [Example 59, (R)-{3-[4-(4-cyanomethylidene-3-fluoropiperidin-1-yl)-3-fluorophenyl]-2-oxo-oxazolidin-5-ylmethyl}-methanesulphonate]	116 to 118 °C
CC1CN(c2ccc(N3C[C@H](CNC=O)OC3=O)cc2F)CC/C1=C\C#N (stereo partly drawn) [Example 62, (S)-N-{3-[4-(4-cyanomethylidene-3-methylpiperidin-1-yl)-3-fluorophenyl]-2-oxo-oxazolidin-5-ylmethyl}-formamide]	98 to 100 °C
CC(=O)NC[C@H]1CN(c2ccc(N3CC/C(=C\C#N)C(C)C3)c(F)c2)C(=O)O1 (stereo partly drawn) [Example 63, (S)-N-{3-[4-(4-cyanomethylidene-3-methylpiperidin-1-yl)-3-fluorophenyl]-2-oxo-oxazolidin-5-ylmethyl}-acetamide]	152 to 153 °C
CC1CN(c2ccc(N3C[C@H](CNc4nccs4)OC3=O)cc2F)CC/C1=C\C#N (stereo partly drawn) [Example 66, (S)-2-{3-[4-(4-cyanomethylidene-3-methylpiperidin-1-yl)-3-fluorophenyl]-2-oxo-oxazolidin-5-ylmethylamino}-1,3-thiazole]	75 to 77 °C
CC(=O)NC[C@H]1CN(c2ccc(N3CC/C(=C/C#N)C(C)(C)C3)c(F)c2)C(=O)O1 [Example 70, (S)-N-{3-[4-(4-cyanomethylidene-3,3-dimethylpiperidin-1-yl)-3-fluorophenyl]-2-oxo-oxazolidin-5-ylmethyl}-acetamide]	150 to 152 °C
CC(=O)NC[C@H]1CN(c2ccc(N3CCC(=C(C)C#N)CC3)cc2)C(=O)O1 [Example 72, (S)-N-{3-[4-(4-(1-cyanoethylidene)-piperidin-1-yl)-phenyl]-2-oxo-oxazolidin-5-ylmethyl}-acetamide]	94 to 96 °C
CC(C#N)=C1CCN(c2ccc(N3C[C@H](CNC=O)OC3=O)cc2F)CC1 [Example 73, (S)-N-{3-[4-(4-(1-cyanoethylidene)-piperidin-1-yl)-3-fluorophenyl]-2-oxo-oxazolidin-5-ylmethyl}-formamide]	188 to 190 °C
CC(C#N)=C1CCN(c2ccc(N3C[C@H](CNC(=O)CN)OC3=O)cc2F)CC1 [Example 76, (S)-N-{3-[4-(4-(1-cyanoethylidene)-piperidin-1-yl)-3-fluorophenyl]-2-oxo-oxazolidin-5-ylmethylamino}-carboxymethylamine]	141 to 142 °C
CC(C#N)=C1CCN(c2ccc(N3C[C@H](CNC(=O)OCC(C)C)OC3=O)cc2F)CC1 [Example 81, (S)-N-{3-[4-(4-(1-cyanoethylidene)-piperidin-1-yl)-3-fluorophenyl]-2-oxo-oxazolidin-5-ylmethyl}-isobutylcarbamate]	158 to 160 °C
CC(C#N)=C1CCN(c2ccc(N3C[C@H](CO)OC3=O)cc2F)CC1 [Example 82, (R)-{3-[4-(4-(1-cyanoethylidene)-piperidin-1-yl)-3-fluorophenyl]-2-oxo-oxazolidin-5-ylmethyl}-alcohol]	100 to 102 °C
